Experimental findings from patent US20210122730A1, “GLUCOCORTICOID RECEPTOR MODULATORS” (ORIC Pharmaceuticals, Inc., priority 2017, published 2021) are described below.

In one series the target is T1, GR (Homo sapiens, UniProt P04150).
T1 construct: expressed in transfected cells; host or cells: CHO-K1
T1 sequence (P04150 1-777): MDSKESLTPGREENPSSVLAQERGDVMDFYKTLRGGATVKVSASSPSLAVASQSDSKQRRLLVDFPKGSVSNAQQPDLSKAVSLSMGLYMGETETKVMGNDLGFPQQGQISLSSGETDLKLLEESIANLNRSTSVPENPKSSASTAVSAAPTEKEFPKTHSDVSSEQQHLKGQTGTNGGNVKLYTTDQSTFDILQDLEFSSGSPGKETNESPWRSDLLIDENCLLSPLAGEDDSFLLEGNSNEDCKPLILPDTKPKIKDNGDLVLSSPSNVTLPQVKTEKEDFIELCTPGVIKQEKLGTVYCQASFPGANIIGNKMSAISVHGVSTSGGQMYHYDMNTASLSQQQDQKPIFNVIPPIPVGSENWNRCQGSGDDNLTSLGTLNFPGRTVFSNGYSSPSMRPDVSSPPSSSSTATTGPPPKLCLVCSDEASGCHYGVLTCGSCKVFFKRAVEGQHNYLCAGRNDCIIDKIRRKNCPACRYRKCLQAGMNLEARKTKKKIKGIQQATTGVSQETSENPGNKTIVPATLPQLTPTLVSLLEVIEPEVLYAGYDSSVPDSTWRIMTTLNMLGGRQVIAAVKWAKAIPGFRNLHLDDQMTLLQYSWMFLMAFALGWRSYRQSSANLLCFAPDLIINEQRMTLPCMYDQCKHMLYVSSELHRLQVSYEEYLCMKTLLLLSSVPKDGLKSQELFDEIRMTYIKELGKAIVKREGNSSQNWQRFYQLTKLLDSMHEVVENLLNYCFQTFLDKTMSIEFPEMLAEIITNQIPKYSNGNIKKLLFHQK
In words: In Vitro GR Luciferase Reporter Assay (antagonist mode, CHO-K1-GR-MMTV-Luc reporter cells). It is filed as cell-based. Conditions: antagonist mode, 10 nM Dexamethasone. In short, it runs like this:
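CHO-K1-GR-MMTV-Luc cells in phenol red-free DMEM with 10% CSS, stimulated with 10 nM dexamethasone (final) and treated with 8-point 1:5 compound dilutions for about 18-24 h at 37° C. Luciferase measured by OneGlo luminescence; IC50 derived for inhibition of GR activity.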
On the technique in general: Reporter assays use an easily measured gene product as a stand-in for the process of interest.

The target in a further series is T2, CYP2C8 (Homo sapiens, UniProt P10632).
T2 construct: Pooled human microsomes were obtained from Sekisui XenoTech, KS; tissue Sekisui XenoTech, KS; host or cells: pooled human liver microsomes
T2 sequence (P10632 1-490): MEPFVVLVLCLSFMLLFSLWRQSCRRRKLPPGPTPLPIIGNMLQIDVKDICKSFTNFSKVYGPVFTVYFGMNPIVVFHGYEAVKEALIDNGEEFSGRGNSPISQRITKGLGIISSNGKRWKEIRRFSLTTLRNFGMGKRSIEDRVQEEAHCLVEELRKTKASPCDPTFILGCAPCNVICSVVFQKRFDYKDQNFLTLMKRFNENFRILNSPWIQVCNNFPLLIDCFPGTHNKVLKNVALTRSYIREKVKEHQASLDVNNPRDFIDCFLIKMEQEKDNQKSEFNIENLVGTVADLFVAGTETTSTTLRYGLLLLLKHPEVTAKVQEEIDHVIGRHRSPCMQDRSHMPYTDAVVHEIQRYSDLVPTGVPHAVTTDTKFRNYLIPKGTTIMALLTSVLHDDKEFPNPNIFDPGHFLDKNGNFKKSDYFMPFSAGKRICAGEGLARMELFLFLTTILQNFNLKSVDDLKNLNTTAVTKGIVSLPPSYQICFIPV
In words: CYP Inhibition Assay (CYP2C8, human liver microsomes, paclitaxel substrate). The format is in vitro ADME. To be noted: pH 7.4; pooled human liver microsomes 0.1 mg/mL, probe substrate paclitaxel. In short, it runs like this: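 Pooled human liver microsomes (0.1 mg/mL) in 50 mM potassium phosphate pH 7.4 with compound, started with 1 mM NADPH, 5 min at 37° C, duplicate.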
(In general: Liver microsomes are vesicles of endoplasmic reticulum, rich in cytochrome P450 enzymes.)

In general, IC50 refers to the concentration at which inhibition is half-maximal. The inhibition is the relative decrease from the control value, in per cent. A lower inhibition goes with a response near the control. For `Cn1ncc(S(=O)(=O)N(CC2CC2)[C@H]2CCC3=Cc4c(cnn4-c4ccc(F)cc4)C[C@]3(C(=O)c3ncc(C(F)(F)F)s3)C2)n1` [Example 194, N-(cyclopropylmethyl)-N-((4aS,6S)-1-(4-fluorophenyl)-4a-(5-(trifluoromethyl)thiazole-2-carbonyl)-4,4a,5,6,7,8-hexahydro-1H-benzo[f]indazol-6-yl)-2-methyl-2H-1,2,3-triazole-4-sulfonamide], the 50% inhibitory concentration (IC50) against GR is at most 100 nM. The inhibition at 5 min at CYP2C8 was in the range of 50 to 75%.
`Cn1ccc(S(=O)(=O)N(CC(C)(C)O)[C@H]2CCC3=Cc4c(cnn4-c4ccc(F)cc4)C[C@]3(C(=O)c3cc(C(F)(F)F)ccn3)C2)n1` [Example 195, N-((4aS,6S)-1-(4-fluorophenyl)-4a-(4-(trifluoromethyl)picolinoyl)-4,4a,5,6,7,8-hexahydro-1H-benzo[f]indazol-6-yl)-N-(2-hydroxy-2-methylpropyl)-1-methyl-1H-pyrazole-3-sulfonamide]: the IC50 at GR is at most 100 nM. On CYP2C8, this molecule yielded an inhibition at 5 min of 25 to 50%.
The matching figures for `Cn1ccc(S(=O)(=O)N(C2COC2)[C@H]2CCC3=Cc4c(cnn4-c4ccc(F)cc4)C[C@]3(C(=O)c3ncc(C(F)(F)F)s3)C2)n1` [Example 196, N-((4aS,6S)-1-(4-fluorophenyl)-4a-(5-(trifluoromethyl)thiazole-2-carbonyl)-4,4a,5,6,7,8-hexahydro-1H-benzo[f]indazol-6-yl)-1-methyl-N-(oxetan-3-yl)-1H-pyrazole-3-sulfonamide]: at most 100 nM and 50 to 75%.
For the molecule `Cn1ccc(S(=O)(=O)N(C2COC2)[C@H]2CCC3=Cc4c(cnn4-c4ccc(F)cc4)C[C@]3(C(=O)c3cc(C(F)(F)F)ccn3)C2)n1` [Example 198, N-((4aS,6S)-1-(4-fluorophenyl)-4a-(4-(trifluoromethyl)picolinoyl)-4,4a,5,6,7,8-hexahydro-1H-benzo[f]indazol-6-yl)-1-methyl-N-(oxetan-3-yl)-1H-pyrazole-3-sulfonamide], the half-maximal inhibitory concentration (IC50) at GR was at most 100 nM. Moreover, the inhibition at 5 min against CYP2C8 lay within 25 to 50%.
For `CCN([C@H]1CCC2=Cc3c(cnn3-c3ccc(F)cc3)C[C@]2(C(=O)c2ncc(C(F)(F)F)s2)C1)S(=O)(=O)c1ccn(C)n1` [Example 199, N-ethyl-N-((4aS,6S)-1-(4-fluorophenyl)-4a-(5-(trifluoromethyl)thiazole-2-carbonyl)-4,4a,5,6,7,8-hexahydro-1H-benzo[f]indazol-6-yl)-1-methyl-1H-pyrazole-3-sulfonamide], in that order: at most 100 nM and 75 to 90%.
The matching figures for `Cn1cnc(S(=O)(=O)N(C2CC2)[C@H]2CCC3=Cc4c(cnn4-c4ccc(F)cc4)C[C@]3(C(=O)c3ncc(C(F)(F)F)s3)C2)c1` [Example 201, N-cyclopropyl-N-((4aS,6S)-1-(4-fluorophenyl)-4a-(5 (trifluoromethyl)thiazole-2-carbonyl)-4,4a,5,6,7,8-hexahydro-1H-benzo[f]indazol-6-yl)-1-methyl-1H-imidazole-4-sulfonamide]: at most 100 nM and at most 25%.
For the molecule `Cn1cc(S(=O)(=O)[C@@]2(F)CCC3=Cc4c(cnn4-c4ccc(F)cc4)C[C@]3(C(=O)c3cc(C(F)(F)F)ccn3)C2)cn1` [Example 202, ((4aS,6S)-6-fluoro-1-(4-fluorophenyl)-6-((1-methyl-1H-pyrazol-4-yl)sulfonyl)-1,4,5,6,7,8-hexahydro-4aH-benzo[f]indazol-4a-yl)(4-(trifluoromethyl)pyridin-2-yl)methanone], at GR, the IC50 was at most 100 nM. The inhibition at 5 min on CYP2C8 is 25 to 50%.
The matching figures for `Cn1ccc(S(=O)(=O)N(C2CCC2)[C@H]2CCC3=Cc4c(cnn4-c4ccc(F)cc4)C[C@]3(C(=O)c3ncc(C(F)(F)F)s3)C2)n1` [Example 203, N-cyclobutyl-N-((4aS,6S)-1-(4-fluorophenyl)-4a-(5 (trifluoromethyl)thiazole-2-carbonyl)-4,4a,5,6,7,8-hexahydro-1H-benzo[f]indazol-6-yl)-1-methyl-1H-pyrazole-3-sulfonamide]: at most 100 nM and 25 to 50%.
`O=C(c1cc(C(F)(F)F)ccn1)[C@]12Cc3cnn(-c4ccc(F)cc4)c3C=C1CC[C@H](N(C1COC1)S(=O)(=O)c1ccc(F)cc1)C2` [Example 204, 4-fluoro-N-((4aS,6S)-1-(4-fluorophenyl)-4a-(4-(trifluoromethyl)picolinoyl)-4,4a,5,6,7,8-hexahydro-1H-benzo[f]indazol-6-yl)-N-(oxetan-3-yl)benzenesulfonamide]: the IC50 against GR was at most 100 nM. The molecule also gave an inhibition at 5 min against CYP2C8 of 25 to 50%.
The matching figures for `Cn1ccc(S(=O)(=O)N(C2CCC2)[C@H]2CCC3=Cc4c(cnn4-c4ccc(F)cc4)C[C@]3(C(=O)c3cc(C(F)(F)F)ccn3)C2)n1` [Example 206, N-cyclobutyl-N-((4aS,6S)-1-(4-fluorophenyl)-4a-(4-(trifluoromethyl)picolinoyl)-4,4a,5,6,7,8-hexahydro-1H-benzo[f]indazol-6-yl)-1-methyl-1H-pyrazole-3-sulfonamide]: at most 100 nM and 25 to 50%.
The matching figures for `CC(C)N([C@H]1CCC2=Cc3c(cnn3-c3ccc(F)cc3)C[C@]2(C(=O)c2cc(C(F)(F)F)ccn2)C1)S(=O)(=O)c1ccc(F)cc1` [Example 210, 4-fluoro-N-((4aS,6S)-1-(4-fluorophenyl)-4a-(4-(trifluoromethyl)picolinoyl)-4,4a,5,6,7,8-hexahydro-1H-benzo[f]indazol-6-yl)-N-isopropylbenzenesulfonamide]: at most 100 nM and 75 to 90%.
In turn, `CC(C)CN([C@H]1CCC2=Cc3c(cnn3-c3ccc(F)cc3)C[C@]2(C(=O)c2ncc(C(F)(F)F)s2)C1)S(=O)(=O)c1ccn(C)n1` [Example 212, N-((4aS,6S)-1-(4-fluorophenyl)-4a-(5-(trifluoromethyl)thiazole-2-carbonyl)-4,4a,5,6,7,8-hexahydro-1H-benzo[f]indazol-6-yl)-N-isobutyl-1-methyl-1H-pyrazole-3-sulfonamide] showed a half-maximal inhibitory concentration (IC50) at GR of at most 100 nM. The same molecule had an inhibition at 5 min at CYP2C8 of 25 to 50%.
On GR, `CCN([C@H]1CCC2=Cc3c(cnn3-c3ccc(F)cc3)C[C@]2(C(=O)c2cc(C(F)(F)F)ccn2)C1)S(=O)(=O)c1cn(C)cn1` [Example 214, N-ethyl-N-((4aS,6S)-1-(4-fluorophenyl)-4a-(4-(trifluoromethyl)picolinoyl)-4,4a,5,6,7,8-hexahydro-1H-benzo[f]indazol-6-yl)-1-methyl-1H-imidazole-4-sulfonamide] returned a half-maximal inhibitory concentration (IC50) of at most 100 nM. The molecule further returned an inhibition at 5 min against CYP2C8 of at most 25%.
The matching figures for `CC(C)CN([C@H]1CCC2=Cc3c(cnn3-c3ccc(F)cc3)C[C@]2(C(=O)c2cc(C(F)(F)F)ccn2)C1)S(=O)(=O)c1ccn(C)n1` [Example 215, N-((4aS,6S)-1-(4-fluorophenyl)-4a-(4-(trifluoromethyl)picolinoyl)-4,4a,5,6,7,8-hexahydro-1H-benzo[f]indazol-6-yl)-N-isobutyl-1-methyl-1H-pyrazole-3-sulfonamide]: at most 100 nM and 50 to 75%.
Take `CCN([C@H]1CCC2=Cc3c(cnn3-c3ccc(F)cc3)C[C@]2(C(=O)c2ncc(C(F)(F)F)s2)C1)S(=O)(=O)c1cn(C)cn1` [Example 216, N-ethyl-N-((4aS,6S)-1-(4-fluorophenyl)-4a-(5-(trifluoromethyl)thiazole-2-carbonyl)-4,4a,5,6,7,8-hexahydro-1H-benzo[f]indazol-6-yl)-1-methyl-1H-imidazole-4-sulfonamide]: the IC50 at GR was at most 100 nM. Further, at CYP2C8, the inhibition at 5 min was in the range of 25 to 50%.
